This note sets out measurements from ChEMBL document CHEMBL1201862, “PubChem BioAssay data set” (2004).

The structures appear in SMILES notation. Active and inactive are the calls of the source.

Format in all cases: functional
For test [1], the target named is T1, Corticotropin-releasing factor receptor 2/Corticotropin-releasing factor-binding protein (Homo sapiens, UniProt P24387+Q13324).
T1 sequence (Q13324 whole entry): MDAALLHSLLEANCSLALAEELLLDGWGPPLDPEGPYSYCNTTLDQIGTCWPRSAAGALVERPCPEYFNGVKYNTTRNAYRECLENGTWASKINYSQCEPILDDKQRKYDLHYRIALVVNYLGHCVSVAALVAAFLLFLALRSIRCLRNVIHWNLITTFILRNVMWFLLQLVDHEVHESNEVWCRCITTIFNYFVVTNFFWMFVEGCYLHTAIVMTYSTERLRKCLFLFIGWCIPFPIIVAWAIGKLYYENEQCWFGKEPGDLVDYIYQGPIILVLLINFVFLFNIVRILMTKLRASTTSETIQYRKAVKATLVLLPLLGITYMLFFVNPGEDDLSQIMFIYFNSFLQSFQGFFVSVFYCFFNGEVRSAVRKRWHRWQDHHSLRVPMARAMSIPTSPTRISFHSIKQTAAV
T1 sequence (P24387 whole entry): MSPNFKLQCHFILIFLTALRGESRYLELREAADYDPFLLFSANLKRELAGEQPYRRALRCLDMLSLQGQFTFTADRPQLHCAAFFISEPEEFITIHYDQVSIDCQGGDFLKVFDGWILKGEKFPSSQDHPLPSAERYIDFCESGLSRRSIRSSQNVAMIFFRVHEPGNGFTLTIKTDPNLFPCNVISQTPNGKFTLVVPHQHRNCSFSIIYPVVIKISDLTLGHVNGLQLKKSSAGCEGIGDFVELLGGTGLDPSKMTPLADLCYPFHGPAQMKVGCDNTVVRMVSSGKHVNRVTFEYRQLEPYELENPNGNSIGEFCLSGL
In words: Dose Response confirmation of uHTS hits for small molecule antagonists of the CRF-binding protein and CRF-R2 receptor complex. The settings on record: read-out: IC50_Mean.

Test [2] addresses T2, Fatty acid synthase (Homo sapiens, UniProt P49327). In words: FAS thioesterase domain inhibitors, dose response, biochemical, endpoint fluorescence intensity, uHTS hits (AID 624327).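 Note: fluorescence from hydrolysis of an O-methyl fluorescein acyl ester substrate by the enzyme.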
In test [3] the target is T1, Corticotropin-releasing factor receptor 2/Corticotropin-releasing factor-binding protein. In words: activators of CRF receptor 2 with binding protein – uHTS hits, confirmation (AID 602473). The settings on record: read-out: EC50_Mean.
For test [4], the target named is T2, Fatty acid synthase. In words: FAS thioesterase domain inhibitors, dose response, biochemical, kinetic fluorescence intensity (AID 624326).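 Note: rate of fluorescence rise from hydrolysis of a fluorogenic O-methyl fluorescein ester substrate.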
The target in test [5] is Voltage-dependent T-type calcium channel subunit alpha-1H (Homo sapiens, UniProt O95180).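 Note: channel activity triggered by adding a high calcium stimulation buffer.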
Sequence of Voltage-dependent T-type calcium channel subunit alpha-1H (O95180 whole entry): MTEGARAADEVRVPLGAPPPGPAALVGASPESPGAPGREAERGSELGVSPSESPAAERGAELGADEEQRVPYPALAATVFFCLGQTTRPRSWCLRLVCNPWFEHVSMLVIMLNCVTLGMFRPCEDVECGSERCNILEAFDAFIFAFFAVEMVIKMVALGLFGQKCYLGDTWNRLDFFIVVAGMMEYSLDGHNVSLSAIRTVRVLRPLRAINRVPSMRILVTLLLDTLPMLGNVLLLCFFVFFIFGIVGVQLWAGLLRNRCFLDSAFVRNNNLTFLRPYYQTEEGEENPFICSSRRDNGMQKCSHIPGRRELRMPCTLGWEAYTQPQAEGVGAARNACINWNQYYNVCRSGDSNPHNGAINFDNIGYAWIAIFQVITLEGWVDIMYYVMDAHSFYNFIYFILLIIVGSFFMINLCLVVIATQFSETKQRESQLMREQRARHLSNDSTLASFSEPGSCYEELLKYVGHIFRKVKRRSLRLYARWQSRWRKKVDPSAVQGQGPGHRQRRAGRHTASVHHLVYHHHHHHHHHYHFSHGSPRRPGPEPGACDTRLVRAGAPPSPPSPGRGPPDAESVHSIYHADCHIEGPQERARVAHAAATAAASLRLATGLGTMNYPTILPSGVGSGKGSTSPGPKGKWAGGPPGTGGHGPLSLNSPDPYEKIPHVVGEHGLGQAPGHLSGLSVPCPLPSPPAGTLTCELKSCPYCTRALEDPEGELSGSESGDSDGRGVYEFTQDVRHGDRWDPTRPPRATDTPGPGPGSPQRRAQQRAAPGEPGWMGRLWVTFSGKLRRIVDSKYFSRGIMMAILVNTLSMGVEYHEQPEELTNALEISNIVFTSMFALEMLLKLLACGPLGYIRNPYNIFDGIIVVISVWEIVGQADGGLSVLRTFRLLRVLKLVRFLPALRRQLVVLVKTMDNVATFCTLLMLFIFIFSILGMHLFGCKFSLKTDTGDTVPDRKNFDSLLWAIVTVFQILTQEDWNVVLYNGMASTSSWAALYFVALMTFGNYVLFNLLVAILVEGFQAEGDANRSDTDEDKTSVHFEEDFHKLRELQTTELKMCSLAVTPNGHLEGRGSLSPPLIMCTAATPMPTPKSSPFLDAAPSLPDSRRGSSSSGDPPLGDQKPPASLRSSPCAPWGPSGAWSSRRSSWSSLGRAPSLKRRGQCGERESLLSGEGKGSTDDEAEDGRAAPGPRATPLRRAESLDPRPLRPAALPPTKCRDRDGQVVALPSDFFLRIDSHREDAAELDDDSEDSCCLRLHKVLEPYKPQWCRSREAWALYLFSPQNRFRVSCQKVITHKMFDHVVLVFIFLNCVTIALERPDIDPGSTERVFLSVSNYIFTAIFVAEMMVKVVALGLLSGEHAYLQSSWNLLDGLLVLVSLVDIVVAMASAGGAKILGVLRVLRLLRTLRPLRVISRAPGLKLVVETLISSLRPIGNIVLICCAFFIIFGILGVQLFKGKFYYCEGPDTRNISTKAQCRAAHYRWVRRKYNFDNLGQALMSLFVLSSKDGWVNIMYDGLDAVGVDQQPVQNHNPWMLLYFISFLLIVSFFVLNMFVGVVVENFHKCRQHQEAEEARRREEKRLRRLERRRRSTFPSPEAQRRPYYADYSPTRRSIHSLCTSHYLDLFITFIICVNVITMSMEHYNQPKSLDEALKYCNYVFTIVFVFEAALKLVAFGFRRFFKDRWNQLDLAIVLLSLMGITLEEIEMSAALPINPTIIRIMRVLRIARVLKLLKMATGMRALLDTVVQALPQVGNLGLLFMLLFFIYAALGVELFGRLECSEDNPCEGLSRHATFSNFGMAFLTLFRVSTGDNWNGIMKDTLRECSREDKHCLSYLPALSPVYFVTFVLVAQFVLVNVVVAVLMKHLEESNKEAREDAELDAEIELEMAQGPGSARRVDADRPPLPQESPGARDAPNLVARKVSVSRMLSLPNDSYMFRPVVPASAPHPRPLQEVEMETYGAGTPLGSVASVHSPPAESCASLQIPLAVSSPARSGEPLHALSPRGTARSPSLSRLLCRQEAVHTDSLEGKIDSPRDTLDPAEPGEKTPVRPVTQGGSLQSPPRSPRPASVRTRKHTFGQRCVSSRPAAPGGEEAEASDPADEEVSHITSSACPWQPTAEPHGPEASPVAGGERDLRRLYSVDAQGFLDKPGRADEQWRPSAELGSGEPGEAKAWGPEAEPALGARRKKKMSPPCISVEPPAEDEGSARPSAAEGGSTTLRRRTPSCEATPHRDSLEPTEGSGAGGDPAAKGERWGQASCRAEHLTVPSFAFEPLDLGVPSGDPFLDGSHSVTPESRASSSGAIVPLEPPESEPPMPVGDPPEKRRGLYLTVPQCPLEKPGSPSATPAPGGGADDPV
A short description of test [6]: intracellular Trypanosoma cruzi inhibitors in host cells – cell-based, plate reader, cherry-pick samples, set 3, dose response (AID 651818).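 Note: compounds incubated with infected cells for about four days.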
In test [7] the target is T3, Heat shock factor protein 1 (Mus musculus, UniProt P38532).
T3 sequence (P38532 whole entry): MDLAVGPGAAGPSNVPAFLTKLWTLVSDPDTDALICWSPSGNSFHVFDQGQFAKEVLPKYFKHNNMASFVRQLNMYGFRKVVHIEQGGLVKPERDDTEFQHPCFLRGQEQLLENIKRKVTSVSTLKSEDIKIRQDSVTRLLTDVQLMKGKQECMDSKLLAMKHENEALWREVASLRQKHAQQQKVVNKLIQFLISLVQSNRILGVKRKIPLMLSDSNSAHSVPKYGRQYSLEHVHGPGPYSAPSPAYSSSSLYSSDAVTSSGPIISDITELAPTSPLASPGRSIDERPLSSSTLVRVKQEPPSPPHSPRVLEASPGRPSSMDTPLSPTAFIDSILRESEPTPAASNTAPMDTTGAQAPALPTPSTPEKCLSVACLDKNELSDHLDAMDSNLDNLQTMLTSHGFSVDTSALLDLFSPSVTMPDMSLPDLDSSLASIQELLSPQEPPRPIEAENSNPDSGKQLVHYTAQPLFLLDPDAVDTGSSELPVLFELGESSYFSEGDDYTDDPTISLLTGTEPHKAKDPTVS
In words: inhibition of MG132-induced HSE-luciferase signal, confirmation, cell-based, NIH3T3, luminescence, dose retest (AID 2382).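 Note: NIH3T3 fibroblasts with HSF1-driven luciferase reporter stressed by proteasome inhibitor MG132; luminescence from HSF1-driven luciferase expression after 8 hours of MG132 stress.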

The subject of a further test is SN12K1. In words: cells. The settings on record: Homo sapiens.
Another test has as its system P388/ADR. In words: cells. The settings on record: Mus musculus.
The next test concerns P388. In words: cells. As to conditions: Mus musculus.
For test [8], the target named is Induced myeloid leukemia cell differentiation protein Mcl-1 (Homo sapiens, UniProt Q07820).
Sequence of Induced myeloid leukemia cell differentiation protein Mcl-1 (Q07820 whole entry): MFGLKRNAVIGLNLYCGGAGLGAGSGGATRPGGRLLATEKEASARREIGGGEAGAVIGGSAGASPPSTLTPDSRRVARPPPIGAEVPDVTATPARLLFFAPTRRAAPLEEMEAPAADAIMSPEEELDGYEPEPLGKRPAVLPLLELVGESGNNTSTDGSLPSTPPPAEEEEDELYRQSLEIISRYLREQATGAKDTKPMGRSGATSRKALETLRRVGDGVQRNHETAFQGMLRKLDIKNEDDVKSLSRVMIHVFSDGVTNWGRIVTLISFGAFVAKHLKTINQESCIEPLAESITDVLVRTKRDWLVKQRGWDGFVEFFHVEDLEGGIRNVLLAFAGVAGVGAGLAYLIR
A further test has as its system H4. In words: Luminescence Cell-Based Dose Response HTS to Identify Activators of 5'UTR Stem-Loop Driven Prion Protein mRNA Translation in H4 Neuroglioblastoma Cells. [Related pubchem assays: 1829 (Project Summary), 1814 (Primary HTS)]. The settings on record: Homo sapiens.
Test [9] in a line: Luminescence Cell-Based Dose Response HTS to Identify Activators of Luciferase Translation or Activity in H4 […] Cells. [Related pubchem assays: 1829 (Project Summary), 1814 (Primary HTS)].
Test [10] in a line: Luminescence Cell-Based Dose Confirmation HTS to Identify Activators of 5'UTR Stem-Loop Driven Alpha-Synuclein mRNA Translation in H4 Neuroglioblastoma Cells. [Related pubchem assays: 1829 (Project Summary), 1814 (Primary HTS)].

For the compound `Cn1c(=O)c2cc3c(nc2n(C)c1=O)CC(c1ccccc1)CC3=O` (centres undefined), the IC50 in test [1] was > 47.1 µM (inactive); at Fatty acid synthase [2], 10.5 µM (active); on Fatty acid synthase [4], 14.5 µM (active). Besides, the EC50 in [3] is > 53 µM (inactive). In the case of `COc1ccc(CNC(=O)CC2C[C@H](C(=O)N3CCOCC3)[C@@]3(CCC4CCCC4)c4[nH]c5ccccc5c4CCN3C2=O)cc1OC` (some centres undefined), the IC50 is 3.67 µM (active) at Fatty acid synthase [2] and 4.73 µM (active) on Fatty acid synthase [4]. Take `CCn1nccc1C(=O)Nc1cc(Cl)cc(Cl)c1`: in test [5], the EC50 is 7.54 µM (active).

Turning to `COc1ccc(N2CCN(C(=O)CCc3nc(-c4ccc(C)cc4)no3)CC2)cc1`, the EC50 in test [5] is 2.1 µM (active). In general, AC50 refers to the midpoint of the concentration-response curve, whichever way the signal moves. Regarding `C[C@@H]1CN([C@@H](C)CO)C(=O)Cc2cc(NC(=O)Nc3ccc(F)cc3)ccc2O[C@@H]1CN(C)Cc1ccc(Cl)c(Cl)c1`, in test [6], the concentration at half-maximal activity (AC50) is 3.42 µM (active). On to `O=C(CSc1nc2ccccc2[nH]1)Nc1ccc(F)c(F)c1`, for which the EC50 in test [7] is > 195 µM (not active); in [5], 6.59 µM (active). Turning to `Cc1cccc(OCC(=O)Nc2ccccc2N2CCN(C(=O)C(C)C)CC2)c1C`, the EC50 in test [5] is 2.13 µM (active). With `S=C(NCc1ccco1)N1CCN(Cc2ccc(Cl)cc2Cl)CC1`, the EC50 in test [5] was 4.2 µM (active). Turning to `Cc1ccc(S(=O)(=O)Nc2ccc3c(c2)CC(=O)N([C@@H](C)CO)C[C@H](C)[C@H](CN(C)Cc2ccc(C(=O)Nc4ccccc4N)cc2)O3)cc1`, in [6], the concentration at half-maximal activity (AC50) was 2.31 µM (active). By GI50 is commonly meant the concentration at which growth is held to half of that of the control. For the compound `CC1=CC2=C(C=O)C(=O)[C@](C)(O)[C@@H](O)C2=CO1`, the GI50 is 30.4 µM (inactive) in the test with SN12K1, 14.5 µM (inactive) in the test on P388/ADR and 15 µM (inactive) in the test with P388. Turning to `COc1ccc(S(=O)(=O)Nc2ccc3c(c2)CC(=O)N([C@H](C)CO)C[C@@H](C)[C@@H](CN(C)S(=O)(=O)c2ccc(F)cc2)O3)cc1`, the half-maximal activity concentration (AC50) in test [6] was 2.24 µM (active).

As for `Nc1cc2c(cc1[N+](=O)[O-])OCO2`, the IC50 in test [8] is 5.21 µM (active). With `N#C/C(=C(/O)c1ccc(-c2cccc([N+](=O)[O-])c2)o1)c1nc2ccccc2s1`, the EC50 in the test on H4 was > 120 µM (not active); in test [9], 9.39 µM (active); in test [10] it was > 120 µM (not active). For the same compound, in test [8], the IC50 is 5.38 µM (active). As for `O=C(CSCc1cnn(-c2ccccc2)c1-n1cccc1)NCc1ccc2c(c1)OCO2`, the EC50 in [5] was 2.98 µM (active). For the compound `CCC(C)(C)n1nnnc1C(c1ccc(O)c(OC)c1)N1CCc2ccccc2C1` (centres undefined), the IC50 in test [8] was 6.3 µM (active). With `CC[C@@]1(O)C(=O)OCc2c1cc1n(c2=O)Cc2cc3cc(O)ccc3nc2-1` [HYDROXYCAMPTOTHECIN], the figures for the concentration for 50% growth inhibition (GI50) with SN12K1, in the test on P388/ADR and in the test with P388 were 0.01 µM (active), 0.0304 µM (active) and 0.0203 µM (active), respectively. For `C[C@H](CO)N1C[C@H](C)[C@@H](CN(C)S(=O)(=O)c2ccc(Cl)cc2)Oc2c(NC(=O)c3nc4ccccc4s3)cccc2C1=O`, the AC50 in [6] was 1.73 µM (active).
